Assay results from ChEMBL document CHEMBL1138463, “Structure-based design, synthesis, and characterization of inhibitors of human and Plasmodium falciparum dihydroorotate dehydrogenases” (J Med Chem, 2009).

Columns and labels:
[1] = target: Dihydroorotate dehydrogenase (quinone), mitochondrial (Homo sapiens, UniProt Q02127)
Description: Inhibition of ubiquinone binding site of human dihydroorotate dehydrogenase

[2] = target: T1, Dihydroorotate dehydrogenase (Plasmodium falciparum, UniProt Q54A96)
T1 sequence (Q54A96 whole entry): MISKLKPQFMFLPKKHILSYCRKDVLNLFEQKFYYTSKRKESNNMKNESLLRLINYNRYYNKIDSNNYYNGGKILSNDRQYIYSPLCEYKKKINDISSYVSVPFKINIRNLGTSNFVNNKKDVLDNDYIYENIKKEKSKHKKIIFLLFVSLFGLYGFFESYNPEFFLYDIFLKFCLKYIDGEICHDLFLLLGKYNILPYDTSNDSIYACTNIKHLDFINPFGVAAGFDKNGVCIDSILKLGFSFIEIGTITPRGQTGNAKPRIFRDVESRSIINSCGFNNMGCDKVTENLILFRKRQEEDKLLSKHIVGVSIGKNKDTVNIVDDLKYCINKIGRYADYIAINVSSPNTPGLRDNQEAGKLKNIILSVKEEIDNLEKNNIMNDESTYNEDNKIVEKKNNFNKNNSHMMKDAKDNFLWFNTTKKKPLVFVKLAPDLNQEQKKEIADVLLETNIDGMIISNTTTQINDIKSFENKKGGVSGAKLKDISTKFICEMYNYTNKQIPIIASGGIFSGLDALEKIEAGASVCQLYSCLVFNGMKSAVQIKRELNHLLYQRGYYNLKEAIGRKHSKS
Description: Inhibition of ubiquinone binding site of Plasmodium falciparum dihydroorotate dehydrogenase

Sequence of Dihydroorotate dehydrogenase (quinone), mitochondrial (Q02127 whole entry): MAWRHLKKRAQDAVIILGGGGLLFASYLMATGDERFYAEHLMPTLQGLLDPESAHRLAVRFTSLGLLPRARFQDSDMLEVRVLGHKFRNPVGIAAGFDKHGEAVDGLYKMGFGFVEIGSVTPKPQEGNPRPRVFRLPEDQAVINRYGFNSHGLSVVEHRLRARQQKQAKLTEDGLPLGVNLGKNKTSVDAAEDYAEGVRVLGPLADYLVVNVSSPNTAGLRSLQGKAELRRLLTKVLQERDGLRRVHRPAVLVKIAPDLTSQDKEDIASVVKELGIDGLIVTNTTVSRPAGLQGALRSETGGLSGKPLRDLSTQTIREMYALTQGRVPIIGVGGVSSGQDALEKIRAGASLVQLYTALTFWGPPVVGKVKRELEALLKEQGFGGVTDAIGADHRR

Structure (SMILES) | IC50 [1] [µM] | Ki [1] [µM] | IC50 [2] [µM] | Ki [2] [µM]
CCOc1cccc(-c2ccc(NC(=O)/C(C#N)=C(/C)O)cc2)c1 | 0.13 | 0.016 | 182 | 21.5
C/C(O)=C(\C#N)C(=O)Nc1ccc(-c2ccccc2)cc1 | 0.09 | 0.011 | 25.7 | 3
N#C/C(C(=O)Nc1ccc(C(F)(F)F)cc1)=C(/O)C1CC1 | 0.117 | 0.014 | 92.5 | 11
C/C(O)=C(\C#N)C(=O)Nc1ccc(-c2ccccc2Cl)c(Cl)c1 | 0.022 | 0.0027 | 165 | 20.5
C/C(O)=C(\C#N)C(=O)Nc1ccc(-c2cccc(Cl)c2Cl)cc1 | 0.2 | 0.025 | 27.2 | 3.2
C/C(O)=C(\C#N)C(=O)Nc1ccc(-c2ccccc2Cl)cc1 | 0.13 | 0.016 | 47.4 | 5.6
COc1ccccc1-c1ccc(NC(=O)/C(C#N)=C(/C)O)c(Cl)c1 | 0.2 | 0.025 | 8.6 | 1
C/C(O)=C(\C#N)C(=O)Nc1ccc(-c2c(Cl)cccc2Cl)cc1Cl | 16.5 | 2 | 10.2 | 1.2
N#C/C(C(=O)Nc1ccc(-c2ccccc2)cc1)=C(/O)C1CC1 | 0.053 | 0.007 | – | –

Results, then the molecule that gave them:

IC50 [1] [µM] | Ki [1] [µM] | IC50 [2] [µM] | Ki [2] [µM] | Structure (SMILES)
1.52 | 0.19 | 49.1 | 5.8 | C/C(O)=C(\C#N)C(=O)Nc1ccc(-c2cccc(Cl)c2)cc1Cl
0.18 | 0.022 | 4 | 0.48 | C/C(O)=C(\C#N)C(=O)Nc1ccc(-c2ccccc2Cl)cc1Cl
0.32 | 0.039 | 51.1 | 6 | C/C(O)=C(\C#N)C(=O)Nc1ccc(-c2ccccc2)cc1Cl
0.19 | 0.023 | 237 | 28 | C/C(O)=C(\C#N)C(=O)Nc1ccc(-c2cccc(Cl)c2)c(Cl)c1
86.6 | 10.7 | 57.2 | 6.8 | C/C(O)=C(\C#N)C(=O)Nc1ccc(-c2cccc(Cl)c2)cc1C(F)(F)F
0.33 | 0.04 | 9.9 | 1.2 | C/C(O)=C(\C#N)C(=O)Nc1ccc(-c2cccc(Cl)c2Cl)cc1Cl
0.17 | 0.021 | 6.2 | 0.73 | C/C(O)=C(\C#N)C(=O)Nc1ccc(-c2ccccc2Cl)cc1C(F)(F)F
